Laboratory results: US7666901B2, “Analogs of 17-hydroxywortmannin as PI3K inhibitors” (Wyeth, priority 2004, dated 2010)

How the values were obtained:
[1] = tested on: LNCaP (human prostate carcinoma); assay: Cell proliferation (MTS) assay, LNCaP; format: cell-based; settings: Homo sapiens, LNCaP, 72 h, Table 1; three days treatment
Protocol: (§1) Results of cell proliferation assays for exemplary compounds are shown below in Tables 1 and 2. Cell lines LNCaP (human prostate carcinoma), MDA468 (human breast cancer cell), MDA435 (human breast adenocarcinoma), and DU145 (human prostate carcinoma[…]) were purchased from American Type Culture Collection (ATCC) (Rockville, Md.). Cells were cultured in RPMI Medium 1640 containing 10% fetal bovine serum (FBS) in a 37° C. incubator containing 5% CO2. All cell culture reagents were purchased from Gibco-BRL (Grand Island, N.Y.). Cells were plated in 96-well culture plates at about 3000 cells per well. One day following plating, compounds or vehicle controls (buffer only) were added to cells. Proliferation assays were performed three days post initiation of treatment.
(§2) For a non-radioactive cell proliferation assay, viable cell densities are determined by measuring metabolic conversion (by viable cells) of the dye MTS tatrazolium dye, a cell proliferation assay known by one of skill in the art (MTS assay), a previously established cell proliferation assay. The assay is performed using an assay kit (Promega Corp., Madison, Wis.). The assay plates are incubated for 1-2 hours, and the results are read in a 96-well format plate reader by measuring absorbance at 490 nm. Effect of each compound is calculated as a percentage of control cell growth obtained from vehicle-treated cells grown in the same plate.

[2] = tested on: MDA468 (human breast cancer cell); assay: Cell proliferation (MTS) assay, MDA468; format: cell-based; settings: Homo sapiens, 72 h, Table 1; three days treatment
Protocol: as §1, §2

[3] = tested on: MDA435 (human breast adenocarcinoma); assay: Cell proliferation (MTS) assay, MDA435; format: cell-based; settings: Homo sapiens, MDA435, 72 h, Table 1; three days treatment
Protocol: as §1, §2

[4] = tested on: DU145 (human prostate carcinoma/lymphocytic leukemia); assay: Cell proliferation (MTS) assay, DU145; format: cell-based; settings: Homo sapiens, DU-145, 72 h, Table 1; three days treatment
Protocol: as §1, §2

Human TOR = molecular target: T1, Human TOR (Homo sapiens, UniProt P42345); assay: Human TOR (mTOR) kinase assay, DELFIA format; format: biochemical; settings: Table 1
T1 construct: FLAG
Protocol: The PI3K/AKT/TOR pathway is critical for cell proliferation, growth, survival, and angiogensis. Accordingly, compounds of the present invention may also be useful to inhibit TOR activity. Similar in vivo and in vitro assays to those described above with reference to PI3K can be used to determine the minimum concentration of compound sufficient to inhibit TOR. A human TOR assay and a Rat1-IGF1 assay as described in Examples 67 and 68, respectively was performed with some embodiments of the invention. The results of these assays are shown below in Tables 1 and 2.
Human TOR assays (See Toral-Barza, et al. Biochem Biophys. Res. Commun. 2005 Jun. 24; 332(1):304-10) with purified enzyme are performed in 96-well plates by DELFIA format as follows. Enzymes are first diluted in kinase assay buffer (10 mM Hepes (pH 7.4), 50 mM NaCl, 50 mM b-glycerophosphate, 10 mM MnCl2, 0.5 mM DTT, 0.25 mM microcystin LR, and […] BSA). To each well, 12 mL of the diluted enzyme is mixed briefly with 0.5 mL test inhibitor or control vehicle dimethylsulfoxide (DMSO). The kinase reaction is initiated by adding 12.5 mL kinase assay buffer containing ATP and His6-S6K to give a final reaction volume of 25 mL containing 800 ng/mL FLAG-TOR, […] ATP and […] His6-S6K. The reaction plate is incubated for 2 hours (linear at 1-6 hours) at room temperature with gentle shaking and then terminated by adding 25 mL Stop buffer (20 mM Hepes (pH 7.4), 20 mM EDTA, 20 mM EGTA). The DELFIA detection of the phosphorylated (Thr-389) His6-S6K is performed at room temperature using a monoclonal anti-P(T389)-p70S6K antibody (1A5, Cell Signaling) labeled with Europium-N1-ITC (Eu) (10.4 Eu per antibody, PerkinElmer). The DELFIA Assay buffer and Enhancement solution can be purchased from PerkinElmer. 45 mL of the terminated kinase reaction mixture is transferred to a MaxiSorp plate (Nunc) containing 55 mL PBS. The His6-S6K is allowed to attach for 2 hours after which the wells are aspirated and washed once with PBS. 100 mL of DELFIA Assay buffer with 40 ng/mL Eu-P(T389)-S6K antibody is added. The antibody binding is continued for 1 hour with gentle agitation. The wells are then aspirated and washed 4 times with PBS containing 0.05% Tween-20 (PBST). […] of DELFIA Enhancement solution is added to each well and the plates are read in a PerkinElmer Victor model plate reader. Data obtained is used to calculate enzymatic activity and enzyme inhibition by potential inhibitors.

IC50 [1] [µg/mL]	IC50 [2] [µg/mL]	IC50 [3] [µg/mL]	IC50 [4] [µg/mL]	IC50 (Human TOR) [µM]	SMILES
0.075	1	6	2	–	CCN(/C=C1/C(=O)O[C@H](COC)[C@@]2(C)C1=C(O)C(=O)C1=C2[C@H](OC(C)=O)C[C@]2(C)[C@@H](O)CC[C@@H]12)CC [Compound 1, (1E,4S,4aR,5R,6aS,7S,9aR)-1-[(diethylamino)methylene]-7,11-dihydroxy-4-(methoxymethyl)-4a,6a-dimethyl-2,10-dioxo-1,2,4,4a,5,6,6a,7,8,9,9a,10-dodecahydroindeno[4,5-h]isochromen-5-yl acetate]
0.1	1	6	1.4	> 19.9	COC[C@H]1OC(=O)/C(=C/N2CCCC2)C2=C(O)C(=O)C3=C([C@H](OC(C)=O)C[C@]4(C)[C@@H](O)CC[C@@H]34)[C@]21C [Compound 2, (1E,4S,4aR,5R,6aS,7S,9aR)-7,11-dihydroxy-4-(methoxymethyl)-4a,6a-dimethyl-2,10-dioxo-1-(Pyrrolidin-1-ylmethylene)-1,2,4,4a,5,6,6a,7,8,9,9a,10-dodecahydroindeno[4,5-h]isochromen-5-yl acetate]
0.11	0.4	6	1.5	4.7	CCN(/C=C1/C(=O)O[C@H](COC)[C@@]2(C)C1=C(O)C(=O)C1=C2[C@H](OC(C)=O)C[C@@]2(C)C1CC[C@@H]2OC=O)CC (stereo partly drawn) [Compound 18, (1E,4S,4aR,5R,6aS,7S)-1-[(diethylamino)methylene]-7-(formyloxy)-11-hydroxy-4-(methoxymethyl)-4a,6a-dimethyl-2,10-dioxo-1,2,4,4a,5,6,6a,7,8,9,9a,10-dodecahydroindeno[4,5-h]isochromen-5-yl acetate]
–	–	–	–	0.539	CCCC(=O)OC1CC2(C)C(O)CCC2C2=C1C1(C)C(=C(O)C2=O)C(=CN(C)CC(C)N(C)C)C(=O)OC1COC (stereo not drawn) [Compound 63, Butanoic acid 4-{[(2-dimethylamino-propyl)-methyl-amino]-methylene}-6,17-dihydroxy-1-methoxymethyl-10,13-dimethyl-3,7-dioxo-1,3,4,7,10,11,12,13,14,15,16,17-dodecahydro-2-oxa-cyclopenta[a]phenanthren-11-yl ester]
